Data taken from paper PMC10033419, “Blocking NS3–NS4B interaction inhibits dengue virus in non-human primates” (Nature, 2023).
Where “and” joins values, the source holds several entries; their conditions need not be identical. Identical values can stand only once. Like-named read-outs stand apart in the source and are kept apart here.

Tests used:
[1] = system: DENV-2 RL strain; experiment: In vivo kinetics study, low viral inoculum (10^2 PFU); settings: for In vivo kinetics - viral RNA, Mean of Log10: group mean
[2] = Plasma protein binding; format: in vitro ADME; settings: rhesus monkey, rhesus macaques
[3] = system: DENV-2 RL strain; experiment: Antiviral assay, viral RNA RT-qPCR, C6/36 cells; format: cell-based
[4] = in vitro; settings: dog
[5] = system: HIV-1 IIIB; experiment: microbe, parasite or virus in culture; format: cell-based; settings: Human immunodeficiency virus 1, IIIB, MAGI-CCR5
[6] = system: INF-A PR8/1934; experiment: microbe, parasite or virus in culture; format: cell-based; settings: Influenza A virus, PR8, MDCK
[7] = system: DENV-1 G4 45AZ5; experiment: DENV-1/45AZ5 antiviral assay RT-qPCR; format: cell-based
Protocol: A total of 20 DENV strains, representing the available genotypes within the four DENV serotypes, were used in the in vitro genotype panel, from which 19 viruses were described previously in ref. [3] and one additional virus, DENV-1/45AZ5 (ref. [54]), was added.
A potential toxic effect on host cells was tested in parallel, while omitting virus infection, using the MTS/PMS method (Promega) for Vero cells, or by high-content imaging for C6/36 cells, as described previously. […] RT–qPCR data were analysed using the QuantStudio 12K Flex software (v.1.2.3) or SDS v.1.2 Applied Biosystems software. Inhibition values for antiviral molecules were plotted using KaleidaGraph plotting software (v.4.03, Synergy Software).

[8] = system: unrelated DNA and RNA viruses; experiment: Panel of unrelated DNA and RNA viruses; format: cell-based
[9] = in vitro; settings: African green monkey
[10] = system: DENV-2/16681; experiment: NHP DENV-2 study, anti-DENV IgG ELISA; set-up: species or system rhesus macaques (M. mulatta); settings: rhesus monkey, in vivo
[11] = JNJ-1802 0.2 mg/kg/d, day 6 p.i., individual mice, 0.2 mg/kg/day
[12] = JNJ-1802 0.2 mg/kg/d, day 8 p.i., individual mice, 0.2 mg/kg/day
[13] = JNJ-1802 0.2 mg/kg/d, day 11 p.i., individual mice
[14] = JNJ-1802 2 mg/kg/d, day 5 p.i., individual mice
[15] = JNJ-1802 2 mg/kg/d, day 6 p.i., individual mice
[16] = JNJ-1802 2 mg/kg/d, day 8 p.i., individual mice
[17] = JNJ-1802 2 mg/kg/d, day 11 p.i., individual mice, 2 mg/kg/day
[18] = JNJ-1802 20 mg/kg/d, day 5 p.i., individual mice
[19] = JNJ-1802 20 mg/kg/d, day 6 p.i., individual mice
[20] = JNJ-1802 20 mg/kg/d, day 8 p.i., individual mice
[21] = JNJ-1802 20 mg/kg/d, day 11 p.i., individual mice

COc1cc(N[C@H](C(=O)c2c[nH]c3ccc(OC(F)(F)F)cc23)c2ccc(Cl)cc2OC)cc(S(C)(=O)=O)c1 [JNJ-1802]
In vivo kinetics - viral RNA, Mean of Log10 ([1]; JNJ-1802 0.2 mg/kg/d, day 6 p.i.): 4.69 Log10 | In vivo kinetics - viral RNA, Copies/ml [1, 11]: 4.46E+04 Copies/ml and 2.63E+04 Copies/ml and 2.31E+04 Copies/ml and 1.84E+05 Copies/ml and 8.21E+04 Copies/ml and 8.40E+03 Copies/ml | In vivo kinetics - viral RNA, Log10 [1, 11]: 4.6493 Log10 and 4.4198 Log10 and 4.8549 Log10 and 5.1560 Log10 and 4.3639 Log10 and 5.2645 Log10 and 4.9143 Log10 and 3.9243 Log10 | In vivo kinetics - viral RNA, Mean of Log10 ([1]; JNJ-1802 0.2 mg/kg/d, day 8 p.i.): 3.63 Log10 | In vivo kinetics - viral RNA, Copies/ml [1, 12]: 3.93E+02 Copies/ml and 4.25E+05 Copies/ml and 5.92E+05 Copies/ml | In vivo kinetics - viral RNA, Log10 [1, 12]: 2.5940 Log10 and 5.6283 Log10 and 5.7725 Log10 | In vivo kinetics - viral RNA, Mean of Log10 ([1]; JNJ-1802 0.2 mg/kg/d, day 11 p.i.): 2.59 Log10 | In vivo kinetics - viral RNA, Copies/ml [1, 13]: 3.93E+02 Copies/ml | In vivo kinetics - viral RNA, Log10 [1, 13]: 2.5940 Log10 | In vivo kinetics - viral RNA, Copies/ml [1, 14]: 3.93E+02 Copies/ml | In vivo kinetics - viral RNA, Log10 [1, 14]: 2.5940 Log10 | In vivo kinetics - viral RNA, Mean of Log10 ([1]; JNJ-1802 2 mg/kg/d, day 6 p.i.): 2.59 Log10 | In vivo kinetics - viral RNA, Copies/ml [1, 15]: 3.93E+02 Copies/ml | In vivo kinetics - viral RNA, Log10 [1, 15]: 2.5940 Log10 | In vivo kinetics - viral RNA, Mean of Log10 ([1]; JNJ-1802 2 mg/kg/d, day 8 p.i.): 2.59 Log10 | In vivo kinetics - viral RNA, Copies/ml [1, 16]: 3.93E+02 Copies/ml | In vivo kinetics - viral RNA, Log10 [1, 16]: 2.5940 Log10 | In vivo kinetics - viral RNA, Mean of Log10 ([1]; JNJ-1802 2 mg/kg/d, day 11 p.i.): 2.74 Log10 | In vivo kinetics - viral RNA, Copies/ml [1, 17]: 3.93E+02 Copies/ml and 3.01E+03 Copies/ml | In vivo kinetics - viral RNA, Log10 [1, 17]: 2.5940 Log10 and 3.4790 Log10 | In vivo kinetics - viral RNA, Copies/ml [1, 18]: 3.93E+02 Copies/ml | In vivo kinetics - viral RNA, Log10 [1, 18]: 2.5940 Log10 | In vivo kinetics - viral RNA, Mean of Log10 ([1]; JNJ-1802 20 mg/kg/d, day 6 p.i.): 2.59 Log10 | In vivo kinetics - viral RNA, Copies/ml [1, 19]: 3.93E+02 Copies/ml | In vivo kinetics - viral RNA, Log10 [1, 19]: 2.5940 Log10 | In vivo kinetics - viral RNA, Mean of Log10 ([1]; JNJ-1802 20 mg/kg/d, day 8 p.i.): 2.59 Log10 | In vivo kinetics - viral RNA, Copies/ml [1, 20]: 3.93E+02 Copies/ml | In vivo kinetics - viral RNA, Log10 [1, 20]: 2.5940 Log10 | In vivo kinetics - viral RNA, Mean of Log10 ([1]; JNJ-1802 20 mg/kg/d, day 11 p.i.): 2.59 Log10 | In vivo kinetics - viral RNA, Copies/ml [1, 21]: 3.93E+02 Copies/ml | In vivo kinetics - viral RNA, Log10 [1, 21]: 2.5940 Log10 | In vivo kinetics, Mean of Log10 ([1]; mouse, in vivo): 2.78 Log10 | In vivo kinetics - viral RNA, Copies/ml ([1]; mouse, in vivo, 0.2 mg/kg/day): 7.16E+04 Copies/ml and 1.43E+05 Copies/ml | fraction unbound [2]: < 0.001 | EC50 ([3]; C3/36 cells, DENV-2RL, EXP 1 and EXP 2, read-out: EC50, individual values): 1.34 nM and 1.19 nM and 1.38 nM | EC90 ([3]; C3/36 cells, DENV-2RL, EXP 1 and EXP 2, read-out: EC90, individual values): 7.33 nM and 7.51 nM and 5.46 nM | EC50 ([3]; Dengue virus, DENV2, C6/36, C3/36 cells, DENV-2RL, EXP 1 and EXP 2, read-out: EC50, individual values): 1.05 nM | EC90 ([3]; Dengue virus, DENV2, C6/36, C3/36 cells, DENV-2RL, EXP 1 and EXP 2, read-out: EC90, individual values): 5.52 nM | EC50 ([3]; Dengue virus, DENV2, C6/36, C3/36 cells, DENV-2RL, mean, read-out: EC50 Mean): 1.2 nM | EC90 ([3]; Dengue virus, DENV2, C6/36, C3/36 cells, DENV-2RL, mean, read-out: EC90 Mean): 6.46 nM | EC50 ([3]; Dengue virus, DENV2, C6/36, C6/36, read-out: EC50): 1.24 ± 0.14 nM | EC90 ([3]; Dengue virus, DENV2, C6/36, C6/36, read-out: EC90): 6.5 ± 1 nM | CC90 [4]: 5380 nM | CC50 ([4]; CC50): 2600 nM | CC50 ([4]; CC50, Mean): 2630 nM | EC50 [5]: 1600 nM | EC50 [6]: > 2600 nM | EC50 ([6]; read-out: EC50, Mean): > 25000 nM | EC90 ([6]; read-out: EC90, Mean): > 25000 nM | EC50 ([7]; DENV-qPCR-VeroECACC-deltaCt-DENV-1/45AZ5_pre-seeding, single experiments (EXPERIMENT_ID), listed as 64281802-AAA, read-out: EC50 (µM) result_value, DENV-1/45AZ5): 0.0016 µM | EC90 ([7]; Dengue virus, DENV1): 4.18 ± 0.71 nM | EC50 ([7]; Dengue virus, DENV1, DENV-qPCR-VeroECACC-deltaCt-DENV-1/45AZ5_pre-seeding, mean of 6 results, read-out: EC50 (µM) Mean, DENV-1/45AZ5): 0.00152 µM | EC50 ([7]; Dengue virus, DENV1, DENV-qPCR-VeroECACC-deltaCt-DENV-1/45AZ5_pre-seeding, single experiments (EXPERIMENT_ID), read-out: EC50 (µM) result_value, DENV-1/45AZ5): 0.0015 µM | activity against unrelated DNA and RNA viruses [8]: inactive | CC50 [9]: 16000 nM | IgG seroconversion [10]: observed at later timepoints | animals with detectable anti-DENV IgG [10]: none of the animals
